{"source": "ChEMBL document CHEMBL5370538", "about": "“Discovery of novel 6-p-tolyl-3-(3,4,5-trimethoxybenzyl)-7H-[1,2,4]triazolo[3,4-b][1,3,4]thiadiazine derivative as a potent tubulin inhibitor with promising in vivo antitumor activity” (Eur J Med Chem, 2023)", "key": {"A549 [1]": {"system": "A549", "experiment": "Antiproliferative activity against human A549 cells assessed as cell growth inhibition incubated for 48 hrs by MTT assay", "assay_type": "functional, cell-based", "conditions": "A549, 48 h"}, "HT-29": {"system": "HT-29", "experiment": "Antiproliferative activity against human HT-29 cells assessed as cell growth inhibition incubated for 48 hrs by MTT assay", "assay_type": "functional, cell-based", "conditions": "HT-29, 48 h"}, "HeLa [2]": {"system": "HeLa", "experiment": "Antiproliferative activity against human HeLa cells assessed as cell growth inhibition incubated for 48 hrs by MTT assay", "assay_type": "functional, cell-based"}, "MDA-MB-231": {"system": "MDA-MB-231", "experiment": "Antiproliferative activity against human MDA-MB-231 cells assessed as cell growth inhibition incubated for 48 hrs by MTT assay", "assay_type": "functional, cell-based", "conditions": "MDA-MB-231, 48 h"}, "[3]": {"experiment": "Antiproliferative activity against human HEK293 cells assessed as cell growth inhibition incubated for 48 hrs by MTT assay", "assay_type": "toxicity, cell-based"}, "Tubulin (Homo sapiens)": {"target": "Tubulin (Homo sapiens) (UniProt P68371+Q9H4B7+P0DPH7+P68366+Q13509+Q71U36+P04350+Q3ZCM7+P07437+P68363+Q9BQE3+Q6PEY2+Q13885+Q9BVA1+Q9BUF5)", "experiment": "Inhibition of tubulin polymerization (unknown origin) at 10 uM measured for 20 mins in presence of GTP by spectrophotometry analysis relative to control", "assay_type": "protein-complex assay"}, "Tubulin": {"target": "Tubulin", "experiment": "Inhibition of tubulin polymerization (unknown origin) measured for 20 mins in presence of GTP by spectrophotometry analysis", "assay_type": "protein-complex assay, Homo sapiens"}, "[4]": {"experiment": "AUC (0-t) in Sprague-Dawley rat at 2 mg/kg,iv measured upto 24 hrs by LC-MS/MS analysis", "assay_type": "ADME, organism-based", "set-up": "dose 2 mg/kg, time < 24 hrs, route iv", "conditions": "in vivo"}, "[5]": {"experiment": "AUC (0-t) in Sprague-Dawley rat at 10 mg/kg,po measured upto 24 hrs by LC-MS/MS analysis", "assay_type": "ADME, organism-based", "set-up": "dose 10 mg/kg, time < 24 hrs, route po", "conditions": "in vivo"}, "[6]": {"experiment": "AUC (0-infinity) in Sprague-Dawley rat at 2 mg/kg,iv measured upto 24 hrs by LC-MS/MS analysis", "assay_type": "ADME, organism-based", "set-up": "dose 2 mg/kg, time < 24 hrs, route iv", "conditions": "in vivo"}, "[7]": {"experiment": "AUC (0-infinity) in Sprague-Dawley rat at 10 mg/kg,po measured upto 24 hrs by LC-MS/MS analysis", "assay_type": "ADME, organism-based", "set-up": "time < 24 hrs, dose 10 mg/kg, route po", "conditions": "in vivo"}, "[8]": {"experiment": "MRT (0-t) in Sprague-Dawley rat at 2 mg/kg,iv measured upto 24 hrs by LC-MS/MS analysis", "assay_type": "ADME, organism-based", "conditions": "in vivo"}, "[9]": {"experiment": "MRT (0-t) in Sprague-Dawley rat at 10 mg/kg,po measured upto 24 hrs by LC-MS/MS analysis", "assay_type": "ADME, organism-based", "conditions": "in vivo"}, "[10]": {"experiment": "Half life in Sprague-Dawley rat at 2 mg/kg,iv measured upto 24 hrs by LC-MS/MS analysis", "assay_type": "ADME, organism-based", "conditions": "in vivo"}, "[11]": {"experiment": "Half life in Sprague-Dawley rat at 10 mg/kg,po measured upto 24 hrs by LC-MS/MS analysis", "assay_type": "ADME, organism-based", "conditions": "in vivo"}, "[12]": {"experiment": "Tmax in Sprague-Dawley rat at 10 mg/kg,po measured upto 24 hrs by LC-MS/MS analysis", "assay_type": "ADME, organism-based", "conditions": "in vivo"}, "[13]": {"experiment": "Clearance in Sprague-Dawley rat at 2 mg/kg,iv measured upto 24 hrs by LC-MS/MS analysis", "assay_type": "ADME, organism-based", "conditions": "in vivo"}, "[14]": {"experiment": "Cmax in Sprague-Dawley rat at 2 mg/kg,iv measured upto 24 hrs by LC-MS/MS analysis", "assay_type": "ADME, organism-based", "set-up": "time < 24 hrs, dose 2 mg/kg, route iv", "conditions": "in vivo"}, "[15]": {"experiment": "Cmax in Sprague-Dawley rat at 10 mg/kg,po measured upto 24 hrs by LC-MS/MS analysis", "assay_type": "ADME, organism-based", "set-up": "time < 24 hrs, dose 10 mg/kg, route po", "conditions": "in vivo"}, "HeLa [16]": {"system": "HeLa", "experiment": "Induction of cell cycle arrest in human HeLa cells assessed as accumulation of cells at G0/G1 phase at 0.03 uM incubated for 24 hrs by propidium iodide staining based flow cytometry (reference value: 62.4 %)", "assay_type": "functional"}, "HeLa [17]": {"system": "HeLa", "experiment": "Induction of cell cycle arrest in human HeLa cells assessed as accumulation of cells at G0/G1 phase at 0.06 uM incubated for 24 hrs by propidium iodide staining based flow cytometry (reference value: 62.4 %)", "assay_type": "functional"}, "HeLa [18]": {"system": "HeLa", "experiment": "Induction of cell cycle arrest in human HeLa cells assessed as accumulation of cells at G0/G1 phase at 0.12 uM incubated for 24 hrs by propidium iodide staining based flow cytometry (reference value: 62.4 %)", "assay_type": "functional"}, "HeLa [19]": {"system": "HeLa", "experiment": "Induction of cell cycle arrest in human HeLa cells assessed as accumulation of cells at G2/M phase at 0.03 uM incubated for 24 hrs by propidium iodide staining based flow cytometry (reference value: 17.38 %)", "assay_type": "functional"}, "HeLa [20]": {"system": "HeLa", "experiment": "Induction of cell cycle arrest in human HeLa cells assessed as accumulation of cells at S phase at 0.06 uM incubated for 24 hrs by propidium iodide staining based flow cytometry (reference value: 20.22 %)", "assay_type": "functional"}, "HeLa [21]": {"system": "HeLa", "experiment": "Induction of cell cycle arrest in human HeLa cells assessed as accumulation of cells at S phase at 0.12 uM incubated for 24 hrs by propidium iodide staining based flow cytometry (reference value: 20.22 %)", "assay_type": "functional"}, "HeLa [22]": {"system": "HeLa", "experiment": "Induction of apoptosis in human HeLa cells assessed as viable cells at 0.03 uM incubated for 24 hrs Annexin V-FITC/PI staining based flow cytometry analysis (Rvb= 95.9 %)", "assay_type": "functional", "conditions": "read-out: Activity"}, "HeLa [23]": {"system": "HeLa", "experiment": "Induction of apoptosis in human HeLa cells assessed as viable cells at 0.06 uM incubated for 24 hrs Annexin V-FITC/PI staining based flow cytometry analysis (Rvb= 95.9 %)", "assay_type": "functional", "conditions": "read-out: Activity"}, "HeLa [24]": {"system": "HeLa", "experiment": "Induction of apoptosis in human HeLa cells assessed as early apoptotic cells at 0.03 uM incubated for 24 hrs Annexin V-FITC/PI staining based flow cytometry analysis (Rvb= 1.85 %)", "assay_type": "functional"}, "HeLa [25]": {"system": "HeLa", "experiment": "Induction of apoptosis in human HeLa cells assessed as early apoptotic cells at 0.06 uM incubated for 24 hrs Annexin V-FITC/PI staining based flow cytometry analysis (Rvb= 1.85 %)", "assay_type": "functional"}, "HeLa [26]": {"system": "HeLa", "experiment": "Induction of apoptosis in human HeLa cells assessed as early apoptotic cells at 0.12 uM incubated for 24 hrs Annexin V-FITC/PI staining based flow cytometry analysis (Rvb= 1.85 %)", "assay_type": "functional"}, "HeLa [27]": {"system": "HeLa", "experiment": "Induction of apoptosis in human HeLa cells assessed as late apoptotic cells at 0.03 uM incubated for 24 hrs Annexin V-FITC/PI staining based flow cytometry analysis (Rvb= 2.13 %)", "assay_type": "functional"}, "HeLa [28]": {"system": "HeLa", "experiment": "Induction of apoptosis in human HeLa cells assessed as late apoptotic cells at 0.06 uM incubated for 24 hrs Annexin V-FITC/PI staining based flow cytometry analysis (Rvb= 2.13 %)", "assay_type": "functional"}, "HeLa [29]": {"system": "HeLa", "experiment": "Induction of apoptosis in human HeLa cells assessed as necrotic cells at 0.03 uM incubated for 24 hrs Annexin V-FITC/PI staining based flow cytometry analysis (Rvb= 0.12 %)", "assay_type": "functional"}, "HeLa [30]": {"system": "HeLa", "experiment": "Induction of apoptosis in human HeLa cells assessed as necrotic cells at 0.12 uM incubated for 24 hrs Annexin V-FITC/PI staining based flow cytometry analysis (Rvb= 0.12 %)", "assay_type": "functional"}, "HUVEC": {"system": "HUVEC", "experiment": "Antivascular activity against human HUVEC cells assessed as inhibition of capillary tube formation incubated for 24 hrs by crystal violet staining based matrigel-transwell assay", "assay_type": "functional, cell-based"}, "A549 [31]": {"system": "A549", "experiment": "Antitumor activity against human A549 cells xenografted in Balb/c mouse assessed as tumor growth inhibition at 60 mg/kg,ip administrated for 7 days", "assay_type": "functional", "conditions": "A549, 168 h, time 7 day, read-out: TGI"}, "[32]": {"experiment": "Toxicity in Balb/c mouse xenografted with human A549 cells assessed as change in body weight at 60 mg/kg,ip administrated for 7 days", "assay_type": "organism-based", "conditions": "in vivo, 168 h, time 7 day"}}}
{"smiles": "COc1cc(Cc2nnc3n2N=C(c2ccc(C)cc2)CS3)cc(OC)c1OC", "values": [{"measurement": "IC50", "setting": "A549 [1]", "result": 960, "unit": "nM"}, {"measurement": "IC50", "setting": "HT-29", "result": 570, "unit": "nM"}, {"measurement": "IC50", "setting": "HeLa [2]", "result": 46, "unit": "nM"}, {"measurement": "IC50", "setting": "MDA-MB-231", "result": 1890, "unit": "nM"}, {"measurement": "IC50 at 48 h", "setting": "[3]", "result": "> 100000", "unit": "nM"}, {"measurement": "inhibition", "setting": "Tubulin (Homo sapiens)", "result": 43, "unit": "%"}, {"measurement": "IC50", "setting": "Tubulin", "result": 11200, "unit": "nM"}, {"measurement": "AUC(0-t) at 24 h", "setting": "[4]", "result": 307, "unit": "ng·h/mL"}, {"measurement": "AUC(0-t) at 24 h", "setting": "[5]", "result": 122, "unit": "ng·h/mL"}, {"measurement": "AUC(0-inf)", "setting": "[6]", "result": 310, "unit": "ng·h/mL"}, {"measurement": "AUC(0-inf)", "setting": "[7]", "result": 124, "unit": "ng·h/mL"}, {"measurement": "MRT last at 24 h", "setting": "[8]", "result": 1.2, "unit": "h"}, {"measurement": "MRT last at 24 h", "setting": "[9]", "result": 6.4, "unit": "h"}, {"measurement": "half-life", "setting": "[10]", "result": 5.3, "unit": "h"}, {"measurement": "half-life", "setting": "[11]", "result": 4.8, "unit": "h"}, {"measurement": "Tmax", "setting": "[12]", "result": 4.3, "unit": "h"}, {"measurement": "CL", "setting": "[13]", "result": 118, "unit": "mL/min/kg"}, {"measurement": "Cmax", "setting": "[14]", "result": 670, "unit": "ng/mL"}, {"measurement": "Cmax", "setting": "[15]", "result": 28.4, "unit": "ng/mL"}, {"measurement": "Activity", "setting": "HeLa [16]", "result": 52.76, "unit": "%"}, {"measurement": "Activity", "setting": "HeLa [17]", "result": 1.94, "unit": "%"}, {"measurement": "Activity", "setting": "HeLa [18]", "result": 0.51, "unit": "%"}, {"measurement": "Activity", "setting": "HeLa [19]", "result": 27.37, "unit": "%"}, {"measurement": "Activity", "setting": "HeLa [20]", "result": 28.35, "unit": "%"}, {"measurement": "Activity", "setting": "HeLa [21]", "result": 8.4, "unit": "%"}, {"measurement": "viability at 0.03 µM", "setting": "HeLa [22]", "result": 76, "unit": "%"}, {"measurement": "viability at 0.06 µM", "setting": "HeLa [23]", "result": 74.7, "unit": "%"}, {"measurement": "Activity", "setting": "HeLa [24]", "result": 18.6, "unit": "%"}, {"measurement": "Activity", "setting": "HeLa [25]", "result": 17.4, "unit": "%"}, {"measurement": "Activity", "setting": "HeLa [26]", "result": 24, "unit": "%"}, {"measurement": "Activity", "setting": "HeLa [27]", "result": 4.9, "unit": "%"}, {"measurement": "Activity", "setting": "HeLa [28]", "result": 7.44, "unit": "%"}, {"measurement": "Activity", "setting": "HeLa [29]", "result": 0.57, "unit": "%"}, {"measurement": "Activity", "setting": "HeLa [30]", "result": 1.59, "unit": "%"}, {"measurement": "Activity", "setting": "HUVEC", "result": "Dose-Dependent Effect"}, {"measurement": "inhibition in vivo at 60 mg/kg", "setting": "A549 [31]", "result": 47.3, "unit": "%"}, {"measurement": "Activity", "setting": "[32]", "result": "Non-Toxic"}]}
